In patent publication US20140155384A1, “COMPOUNDS AND METHODS OF TREATING DIABETES” (Medivation Technologies, Inc., priority 2011, published 2014):

Assays:
[1] = target: T1, human recombinant adrenergic α2A receptor (Homo sapiens, UniProt P08913); assay: Radioligand binding, adrenergic α2A receptor ([3H]MK-912); settings: Sf9 cells, 1 nM [3H]MK-912; for inhibition at 0.03 µM / inhibition at 0.1 µM: read-out: Percentage inhibition of ligand binding, Adrenergic α2A
T1 construct: expressed in transfected cells; host or cells: insect Sf9 cells
T1 sequence (P08913 1-465): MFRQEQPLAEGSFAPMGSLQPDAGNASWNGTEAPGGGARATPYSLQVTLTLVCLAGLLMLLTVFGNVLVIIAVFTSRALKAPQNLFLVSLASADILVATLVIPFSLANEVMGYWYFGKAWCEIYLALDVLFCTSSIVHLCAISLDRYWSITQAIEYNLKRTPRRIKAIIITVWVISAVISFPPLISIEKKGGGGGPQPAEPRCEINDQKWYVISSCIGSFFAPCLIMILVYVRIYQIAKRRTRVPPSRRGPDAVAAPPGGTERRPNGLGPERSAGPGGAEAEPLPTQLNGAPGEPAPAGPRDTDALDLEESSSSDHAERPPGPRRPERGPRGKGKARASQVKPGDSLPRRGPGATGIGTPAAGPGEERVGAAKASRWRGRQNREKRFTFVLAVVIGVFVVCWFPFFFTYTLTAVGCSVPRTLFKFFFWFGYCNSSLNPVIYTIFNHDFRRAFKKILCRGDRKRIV
In short: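 Percent inhibition of specific [3H]MK-912 (1 nM) binding measured by filtration counting, compounds tested at ≤1 μM in 1% DMSO. Receptor: human α2A from Sf9 cells; incubation 60 min, 25 °C, pH 7.4; 10 μM WB-4101 defined nonspecific binding.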

[2] = target: T2, human recombinant adrenergic α2B receptor (Homo sapiens, UniProt P18089); assay: Radioligand binding, adrenergic α2B receptor ([3H]Rauwolscine); settings: CHO-K1 cells; for inhibition at 0.03 µM / inhibition at 0.1 µM: read-out: Percentage inhibition of ligand binding, Adrenergic α2B
T2 construct: expressed in transfected cells; host or cells: CHO-K1
T2 sequence (P18089 1-450): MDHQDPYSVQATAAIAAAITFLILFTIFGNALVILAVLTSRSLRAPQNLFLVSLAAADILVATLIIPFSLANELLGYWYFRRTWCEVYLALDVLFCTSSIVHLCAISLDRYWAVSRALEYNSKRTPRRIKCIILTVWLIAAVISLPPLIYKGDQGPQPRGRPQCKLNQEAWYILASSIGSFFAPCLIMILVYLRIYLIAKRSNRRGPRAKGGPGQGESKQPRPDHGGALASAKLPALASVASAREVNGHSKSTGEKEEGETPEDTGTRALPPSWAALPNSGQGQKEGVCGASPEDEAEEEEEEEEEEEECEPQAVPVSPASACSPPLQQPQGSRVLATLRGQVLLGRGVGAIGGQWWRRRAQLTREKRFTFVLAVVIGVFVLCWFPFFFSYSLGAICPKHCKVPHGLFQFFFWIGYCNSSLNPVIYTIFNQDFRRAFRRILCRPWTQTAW
In short: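 Percent inhibition of specific [3H]Rauwolscine (2.5 nM) binding, compounds at ≤1 μM, 1% DMSO vehicle, 10 μM prazosin defining nonspecific. Receptor: human α2B expressed in CHO-K1 cells, 60 min incubation at 25 °C in Tris-HCl pH 7.4 buffer (MgCl2, EDTA, BSA); filtered, washed, counted.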

[3] = target: T3, rat adrenergic α1B receptor (Rattus norvegicus, UniProt P15823); assay: Radioligand binding, adrenergic α1B receptor ([3H]Prazosin); settings: Wistar rat liver
T3 construct: rat adrenergic α1B receptor obtained from Wistar Rat liver; from tissue; host or cells: Wistar rat liver
T3 sequence (P15823 1-515): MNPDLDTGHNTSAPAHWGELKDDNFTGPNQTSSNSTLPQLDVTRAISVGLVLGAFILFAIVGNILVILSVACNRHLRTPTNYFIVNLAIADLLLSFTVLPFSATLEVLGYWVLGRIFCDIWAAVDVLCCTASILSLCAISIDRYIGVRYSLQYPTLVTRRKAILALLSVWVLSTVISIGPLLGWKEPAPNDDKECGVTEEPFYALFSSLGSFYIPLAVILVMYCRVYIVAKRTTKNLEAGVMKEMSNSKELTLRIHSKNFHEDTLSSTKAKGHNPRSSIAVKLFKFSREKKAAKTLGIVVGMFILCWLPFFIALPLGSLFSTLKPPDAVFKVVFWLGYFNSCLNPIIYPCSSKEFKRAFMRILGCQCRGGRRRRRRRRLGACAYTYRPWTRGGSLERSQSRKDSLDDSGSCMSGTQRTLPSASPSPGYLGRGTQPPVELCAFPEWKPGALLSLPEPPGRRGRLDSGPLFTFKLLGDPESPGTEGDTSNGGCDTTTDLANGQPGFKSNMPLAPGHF
In short: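 Wistar rat liver α1B receptor preparation incubated with 0.25 nM [3H]prazosin and compound for 60 min at 25° C in 50 mM Tris-HCl pH 7.4, 0.5 mM EDTA; nonspecific binding defined with 10 μM phentolamine.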

[4] = 0.1 μM compound, read-out: Percentage inhibition of ligand binding, Adrenergic α1B

| Structure (SMILES) | Percentage inhibition of ligand binding, Adrenergic α2A ([1]; 0.03 μM compound) | inhibition at 0.03 µM ([1]; 0.03 μM compound) | Percentage inhibition of ligand binding, Adrenergic α2A ([1]; 0.1 μM compound) | inhibition at 0.1 µM ([1]; 0.1 μM compound) | Percentage inhibition of ligand binding, Adrenergic α2B ([2]; 0.03 μM compound) | inhibition at 0.03 µM ([2]; 0.03 μM compound) | inhibition at 0.1 µM ([2]; 0.1 μM compound) | inhibition at 0.03 µM ([3]; 0.03 μM compound, read-out: Percentage inhibition of ligand binding, Adrenergic α1B) | Percentage inhibition of ligand binding, Adrenergic α1B ([3]; 0.1 μM compound) | Percentage inhibition of ligand binding, Adrenergic α2B ([2]; 0.1 μM compound) | inhibition at 0.1 µM [3, 4] |
| --- | --- | --- | --- | --- | --- | --- | --- | --- | --- | --- | --- |
| Cc1ccc2c(c1)c1c(n2-c2cscc2-c2ccc3c(ccn3C)c2)CCN(C)C1 [Compound 33] | 96% | 87% | 96% | 92% | 102% | 100% | 95% | 46% | 73% | – | – |
| COc1ccc(-c2cscc2-n2c3c(c4cc(C)ccc42)CN(C)CC3)cc1 [Compound 37] | – | 81% | – | 88% | – | 104% | 96% | – | – | 104% | 77% |
| Cc1csc(-c2cscc2-n2c3c(c4cc(C)ccc42)CN(C)CC3)c1 [Compound 50] | – | 82% | – | 88% | – | 97% | 103% | – | – | – | 42% |
| Cc1ccc2c(c1)c1c(n2-c2cscc2-c2ccc3cnccc3c2)CCN(C)C1 [Compound No. 68] | – | 76% | – | 86% | – | 71% | 86% | – | – | 93% | 61% |
| Cc1ccc2c(c1)c1c(n2-c2cscc2-c2ccc(S(C)(=O)=O)cc2)CCN(C)C1 [Compound No. 76] | – | 44% | 68% | – | – | 89% | 94% | – | – | 100% | 68% |
| Cc1ccc2c(c1)c1c(n2-c2cscc2-c2ccc(C)s2)CCN(C)C1 [Compound No. 79] | – | 82% | – | 90% | – | 102% | 104% | – | – | – | 51% |
| Cc1ccc2c(c1)c1c(n2-c2ccccc2-c2ccc3c(ccn3C)c2)CCN(C)C1 [Compound No. 85, 2,8-dimethyl-5-(2-(1-methyl-1H-indol-5-yl)phenyl)-2,3,4,5-tetrahydro-1H-pyrido[4,3-b]indole] | – | 80% | – | 89% | – | 89% | 98% | – | – | 102% | 36% |
| Cc1ccc2c(c1)c1c(n2-c2ccccc2-c2cccn2C)CCN(C)C1 [Compound No. 100, 2,8-dimethyl-5-(2-(1-methyl-1H-pyrrol-2-yl)phenyl)-2,3,4,5-tetrahydro-1H-pyrido[4,3-b]indole] | – | 74% | – | 84% | – | 103% | 99% | – | – | 109% | 79% |
